Test results from patent publication US20240166629A1, “HETEROCYCLIC COMPOUNDS CAPABLE OF ACTIVATING STING” (Boehringer Ingelheim International GmbH, priority 2022, published 2024).
One block for each compound: values may come before it.

Assays:
human STING variant HAQ = target: T1, human STING variant HAQ (Homo sapiens, UniProt Q86WV6, G230A/H232R/R293Q/R71H); experiment: THP1-Blue ISG IRF-inducible SEAP reporter assay, STING HAQ-variant; type: cell-based; conditions: THP1-Blue ISG cells expressing STING HAQ (parental or re-introduced); 24 hours incubation; SEAP OD 620 nm
T1 construct: expressed in transfected cells; host or cells: THP1-Blue ISG: either parental cells (endogenous HAQ) or hSTING KO clone retrovirally transduced with HAQ
Text: (§1) Activation of the STING protein expressed in cell lines results in an increase of interferon production. By the stable integration of an interferon regulatory factor (IRF)-inducible SEAP gene (secreted embryonic alkaline phosphatase) reporter construct the functional interferon signaling pathway can be monitored. Using Invivogen's THP1-Blue™ ISG colorimetric enzyme assay and a suitable optical density (OD) reader the activity of SEAP can be detected and quantified. This technique could be used to characterize pharmacological modification of the STING pathway.
(§2) Several single nucleotide polymorphisms have been identified in the human STING gene. To determine the activity of the above described compounds, THP1-Blue™ ISG reporter cell lines expressing the different human STING variants have been generated. To do so, the endogenous human STING was first deleted using the CRISPR/CAS9 system: THP1-Blue ISG cells were electroporated with ALL-IN-ONE CRISPR plasmids targeting the STING gene (purchased from Sigma encoding the gRNA and GFP as a reporter gene for successful transduction). GFP positive cells then were sorted 24 h post transfection and expanded. Cells were then dispersed in semisolid methocel medium to allow single cell clone isolations. Clones were then screened for cGAMP responsiveness using the Quanti-Blue™ reporter assay. Non-responsive clones were subsequently analysed for STING loss by western blotting and sequencing of the STING locus.
(§3) For the overexpression of the human STING variants, a confirmed THP1-Blue™ ISG hSTING KO clone was transduced with individual retroviral plasmids (MSCV-ires-GFP-Blasti) encoding the allelic variants of hSTING (WT (H232R), HAQ, R232H, AQ and R293Q). Transduced cells were sorted for different levels of GFP fluorescence and STING allele expression was analysed by western blot.
(§4) Measurements of SEAP activity were performed in THP1-Blue™ ISG cells stably expressing the different human STING isoforms and the IRF-inducible SEAP reporter construct. Cells were cultivated in RPMI1640 medium with 10% fetal calf serum, 50 μg/ml Penicillin-Streptomycin, 100 μg/ml Zeocin, and 100 μg/ml Normocin in a 37°, 95% humidity and 5% CO2 incubator.
(§5) In preparation for the assay, the cells were distributed into the assay plates with a density of 10000 cells/15 μL per well. Compounds were prepared by an 8 point serial dilution in 50% aqueous DMSO and a final dilution step into medium to ensure a final DMSO concentration of 0.5% in the assay. 5 μL of diluted compounds were added to the plates, followed by a 24 hours incubation at 37° C.
(§6) At the day of the assay, 75 μl per well of Quanti-Blue™ reagent was added to all wells of the plate and the plate was incubated another 30 minutes at 37° C. The OD at 620 nm was measured on the EnVision reader (PerkinElmer).
Data of EC50 values on STING HAQ-variant can be found in table 2a. Shown data below were either derived from the parental THP1-Blue™ ISG cell lines (which express endogenously HAQ) or from genetically engineered THP1-Blue™ ISG cell lines in which first STING has been knocked-out and the HAQ specific STING isoform has been re-introduced as described above.

[1] = target: T2, human STING variant H232R (WT) (Homo sapiens, UniProt Q86WV6, H232R); experiment: THP1-Blue ISG IRF-inducible SEAP reporter assay, STING H232R-variant; type: cell-based; conditions: THP1-Blue ISG hSTING KO cells expressing STING H232R; 24 hours incubation
T2 construct: expressed in transfected cells; host or cells: THP1-Blue ISG hSTING KO clone, retroviral MSCV-ires-GFP-Blasti
Text: as §1, §2, §3, §4, §5, §6

in vitro = conditions: human, Caco-2, pH 7.4
Description: Caco-2 cells were obtained from Leibniz Institute DSMZ-German Collection of Microorganisms and Cell Cultures (Braunschweig, Germany) and cultured in DMEM (Dulbecco's modified Eagle medium) containing (in final concentrations) 10% FCS (fetal calf serum), 1% NEAA (non-essential amino acids), 2 mM Glutamin, 100 U/mL Penicillin and 100 μg/mL Streptomycin. Caco-2 cells were seeded either onto 24-well Transwell inserts (Corning, #3379) for bidirectional permeability assays at a density of 160,000 cells/cm^2 and cultured for 3 weeks, with media change on every second day.
For bidirectional permeability assays 10 mM DMSO stock solutions were diluted in transport buffer (final concentrations: 128.13 mM NaCl, 5.36 mM KCl, 1 mM MgSO4, 1.8 mM CaCl2, 4.17 mM NaHCO3, 1.19 mM Na2HPO4, 0.41 mM NaH2PO4, 15 mM 2-[4-(2-hydroxyethyl)piperazin-1-yl]ethanesulfonic acid (HEPES), 20 mM glucose, pH 7.4) containing 0.25% bovine serum albumin to a final concentration of 10 μM of the test compounds and added to the apical or basal compartment. Cells were incubated with the compounds for up to 2 h. Samples from the opposite compartment were taken at different timepoints.
Compound concentrations in the compartments were quantified using a RapidFire-based high-throughput HPLC/MS/MS system (high performance liquid chromatography/mass spectrometry; BioCius) that was customized to a fully automated and flexible platform, termed RIAS. In this modified setup, the sample was aspirated by a vacuum pump into a 10 μL sample loop for 250 ms and flushed onto a C4 cartridge (3.8 μL bed volume; BioCius) with the aqueous mobile phase (99.9% water, 0.09% formic acid, and 0.01% TFA; flow rate 1.5 mL/min). Prior to bioanalysis samples were spiked with internal standard solution and diluted with acetonitrile (ACN) for protein precipitation. Measurement was operated in multiplereaction monitoring (MRM) mode. Quantification was performed using external calibration. A solid-phase extraction step retained the analyte for 3000 ms while interfering matrix (e.g., buffer components) was removed. With a simple step gradient, the analyte was back-eluted from the cartridge for 3,000 ms with the organic mobile phase (99.9% acetonitrile/methanol [1:1, v:v], 0.09% formic acid, and 0.01% TFA) and flushed into the mass spectrometer at a flow rate of 1.25 mL/min. Afterwards, the cartridge was reequilibrated with the aqueous mobile phase for 500 ms (flow rate 1.5 mL/min). The RapidFire software and a customized control software were obtained from BioCius. QuickQuan 2.3, Xcalibur 2.0.7, and XDK 2.1.0.25 were used to operate the TSQ Vantage mass spectrometer (ThermoFisher, San Jose, CA) integrated to the RapidFire system. Mass spectral data-processing software QuickCalc 7.1.9 was purchased from ThermoFisher. The Master software for the RIAS was programmed in-house using LabVIEW (version 8.6.1; National Instruments, Austin, TX). Data analysis was performed in AssayExplorer 3.2 (Symyx, Sunnyvale, CA), and correlation plots were visualized in Spotfire version 2.2.0 (TIBCO, Palo Alto, CA).
Apparent permeability coefficients in the apical to basal direction (Papp,AB) and in the basal to apical direction (Papp,BA) and efflux ratios were calculated as follows:
Efflux ratio=Papp,BA/Papp,AB
where Q is the amount of compound recovered in the receiver compartment after the incubation time t, C0 the initial compound concentration given to the donor compartment, and s the surface area of the Transwell inserts. […] In addition, transepithelial electrical resistance (TEER) values are measured for each plate before the permeability assay, and total recovery in donor and receiver compartments was determined for each compound.

[2] = test system: Human STING (hSTING, UNIPROT entry Q86WV6, residues 155-341); experiment: Interaction with hSTING by differential scanning fluorimetry (DSF); type: binding; conditions: 100 μM test compound, 5 μM hSTING protein
Description: In DSF, the temperature at which a protein unfolds, also called the melting temperature Tm, is measured by changes in fluorescence of a dye that binds to the hydrophobic parts of the protein. Tm shifts upon binding of a small molecule are correlated with the binding affinity of this small molecule. As target protein, Human STING (hSTING, UNIPROT entry Q86WV6, residues 155-341, MW: 21578.4 Da; protein stock solution: c=1302 μM stock solution in 20 mM Tris, 100 mM NaCl, 2 mM TCEP pH 8.8) was used, as assay buffer 20 mM Tris, 150 mM NaCl pH7.5 was added where and as necessary.
Final concentrations of components in assay: 100 μM test compounds, 5 μM target protein, “5×” SYPR Orange (from stock solution SYPRO orange solution in DMSO (invitrogen cat.-no. 56650-500ul), concentration “5000×”)
Assay Procedure: • 1) Dilutions of compound stock solutions (10 mM in DMSO) were prepared in assay buffer (20 mM Tris, 150 mM NaCl; pH7.5) • 2) 5 μl fluorescent dye stock solution (5000×SYPRO Orange in DMSO) was mixed with 19 μl target protein (1302 μM) and 976 μl assay buffer. • 3) 2 μl of this protein-dye-mixture (25×SYPRO Orange and 25 μM Protein) was added to 8 μl diluted compound solution as prepared in step 1. Final volume was 10 μl. • 4) With every 20 compounds, two negative controls were measured. • 5) The plates were prepared for duplicate measurement and centrifuged for 2 min at 1000 g. • 6) For the measurement, a CFX384 Real-Time System (Bio-Rad) was used. The run consisted of 140 cycles with 0.5° C./cycle (temperature ramp 15 s/cycle, 25° C. to 95° C.).
Data analysis: The melting curves were processed in Bio-Rad CFX Manager. Peak type was set to “negative”. Two replicates of TM (melting temperature) measurements were averaged and the standard deviation was calculated.

[3] = target: T3, human STING variant R232H (Homo sapiens, UniProt Q86WV6); experiment: THP1-Blue ISG IRF-inducible SEAP reporter assay, STING R232H-variant; type: cell-based; conditions: THP1-Blue ISG hSTING KO cells expressing STING R232H; 24 hours incubation
T3 construct: expressed in transfected cells; host or cells: THP1-Blue ISG hSTING KO clone, retroviral MSCV-ires-GFP-Blasti
Text: as §1, §2, §3, §4, §5, §6

[4] = target: T4, human STING variant R293Q (Homo sapiens, UniProt Q86WV6, H232R/R293Q); experiment: THP1-Blue ISG IRF-inducible SEAP reporter assay, STING R293Q-variant; type: cell-based; conditions: THP1-Blue ISG hSTING KO cells expressing STING R293Q; 24 hours incubation
T4 construct: expressed in transfected cells; host or cells: THP1-Blue ISG hSTING KO clone, retroviral MSCV-ires-GFP-Blasti
Text: as §1, §2, §3, §4, §5, §6

human STING variant AQ = target: T5, human STING variant AQ (Homo sapiens, UniProt Q86WV6, G230A/H232R/R293Q); experiment: THP1-Blue ISG IRF-inducible SEAP reporter assay, STING AQ-variant; type: cell-based; conditions: THP1-Blue ISG hSTING KO cells expressing STING AQ; 24 hours incubation
T5 construct: expressed in transfected cells; host or cells: THP1-Blue ISG hSTING KO clone, retroviral MSCV-ires-GFP-Blasti
Text: as §1, §2, §3, §4, §5, §6

T4 sequence (Q86WV6 whole entry H232R/R293Q): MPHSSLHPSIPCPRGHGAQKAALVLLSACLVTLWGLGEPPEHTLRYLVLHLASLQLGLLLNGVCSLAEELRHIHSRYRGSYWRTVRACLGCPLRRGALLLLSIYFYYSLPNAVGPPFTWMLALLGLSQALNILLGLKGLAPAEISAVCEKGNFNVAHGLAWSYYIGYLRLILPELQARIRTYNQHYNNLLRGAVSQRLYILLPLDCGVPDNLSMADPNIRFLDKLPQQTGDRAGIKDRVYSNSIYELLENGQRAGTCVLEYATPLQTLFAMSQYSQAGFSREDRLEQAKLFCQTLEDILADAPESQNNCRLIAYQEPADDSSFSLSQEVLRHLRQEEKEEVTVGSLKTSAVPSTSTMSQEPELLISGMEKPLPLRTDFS
T1 sequence (Q86WV6 whole entry R71H/G230A/H232R/R293Q): as the sequence (Q86WV6 whole entry H232R/R293Q) above, with R71H, G230A counted along it
T3 sequence (Q86WV6 whole entry, stated change not applied): as the sequence (Q86WV6 whole entry H232R/R293Q) above, with R232H, Q293R counted along it
T2 sequence (Q86WV6 whole entry H232R): as the sequence (Q86WV6 whole entry H232R/R293Q) above, with Q293R counted along it
T5 sequence (Q86WV6 whole entry G230A/H232R/R293Q): as the sequence (Q86WV6 whole entry H232R/R293Q) above, with G230A counted along it

EC50 (human STING variant HAQ): 800 nM
EC50 [1]: 200 nM
Papp A→B at 10 μM (in vitro): 13 ×10⁻⁶ cm/s
efflux ratio at 10 μM (in vitro): 1.8
SMILES: Cc1c(F)ccc2c(-c3cccc4nn(C)cc34)nn(-c3ccc(N4CCC(C(=O)O)CC4)nc3)c12 [compound 7, 1-(5-(6-fluoro-2′,7-dimethyl-1H,2′H-[3,4′-biindazol]-1-yl)pyridin-2-yl)piperidine-4-carboxylic acid]

EC50 (human STING variant HAQ): 700 nM
EC50 [1]: 300 nM
EC50 [3]: 300 nM
EC50 [4]: 600 nM
EC50 (human STING variant AQ): 600 nM
Papp A→B at 10 μM (in vitro): 4 ×10⁻⁶ cm/s
efflux ratio at 10 μM (in vitro): 6.4
SMILES: Cc1c(Cl)c(F)cc2c(-c3cccc4nn(C)cc34)nn(-c3ccc(N4CCC(C(=O)O)CC4)nc3)c12 [compound 12, 1-(5-(6-chloro-5-fluoro-2′,7-dimethyl-1H,2′H-[3,4′-biindazol]-1-yl)pyridin-2-yl) piperidine-4-carboxylic acid]

The next lines start with the compound.

SMILES: Cc1c(Cl)ccc2c(-c3cccc4nn(C)cc34)nn(-c3ccc(N4CCC(C(=O)O)CC4)nc3)c12 [compound 9, 1-(5-(6-chloro-2′,7-dimethyl-1H,2′H-[3,4′-biindazol]-1-yl)pyridin-2-yl)piperidine-4-carboxylic acid]
EC50 (human STING variant HAQ): 700 nM
Papp A→B at 10 μM (in vitro): 10 ×10⁻⁶ cm/s
efflux ratio at 10 μM (in vitro): 1.5

SMILES: Cc1cc(Cl)cc2c(-c3cccc4nn(C)cc34)nn(-c3ccc(N4CCC(C(=O)O)CC4)nc3)c12 [compound 10, 1-(5-(5-chloro-2′,7-dimethyl-1H,2′H-[3,4′-biindazol]-1-yl)pyridin-2-yl)piperidine-4-carboxylic acid]
TM (changes in TM, thermal shift) [2]: 19 K
EC50 (human STING variant HAQ): 6600 nM
EC50 [1]: 2200 nM
EC50 [3]: 2200 nM
EC50 [4]: 7800 nM
EC50 (human STING variant AQ): 5600 nM

SMILES: Cc1cc(Cl)cc2c(-c3cccc4nn(C)cc34)nn(-c3ccc(N4C[C@@H]5[C@H](C4)[C@H]5C(=O)O)nc3)c12 [compound 11, (1R,5S,6r)-3-(5-(5-chloro-2′,7-dimethyl-1H,2′H-[3,4′-biindazol]-1-yl)pyridin-2-yl)-3-azabicyclo[3.1.0]hexane-6-carboxylic acid]
TM (changes in TM, thermal shift) [2]: 24 K
EC50 (human STING variant HAQ): 3900 nM
EC50 [1]: 800 nM
EC50 [3]: 900 nM
EC50 [4]: 3000 nM
EC50 (human STING variant AQ): 2400 nM

SMILES: Cc1c(Cl)c(F)cc2c(-c3cccc4nn(C)cc34)nn(-c3ccc(N4C[C@@H]5[C@H](C4)[C@H]5C(=O)O)nc3)c12 [compound 13, (1R,5S,6r)-3-(5-(6-chloro-5-fluoro-2′,7-dimethyl-1H,2′H-[3,4′-biindazol]-1-yl)pyridin-2-yl)-3-azabicyclo[3.1.0] hexane-6-carboxylic acid]
EC50 (human STING variant HAQ): 300 nM
Papp A→B at 10 μM (in vitro): 2 ×10⁻⁶ cm/s
efflux ratio at 10 μM (in vitro): 3.6
